Measured values as given in patent publication US10294234B2, “HIV inhibitor compounds” (priority 2017, dated 2019).

The molecules below were run on HIV-1 (IIIB) in MT-4 cells (assay: MT-4 HIV assay). Details: Human immunodeficiency virus 1, MT4, 120 h.
Format: cell-based
Procedure, shortened: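 Antiviral activity was read by Cell Titer Glo after a 5-day, 37 °C culture of MT-4 cells pre-infected with a 1:250 dilution of HIV-1 (IIIB). Compounds were tested as threefold dilution series in complete RPMI. Controls were no drug, mock infection and 5 uM AZT.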
COC(=O)N[C@H](C(=O)N[C@@H](Cc1ccc(-c2cnc(N3C[C@H]4C[C@@H]3CN4C3COC3)nc2)cc1)[C@@H](O)CN(Cc1c(F)cc(-c2ccn(CC(F)F)n2)cc1F)NC(=O)[C@@H](NC(=O)OC)C(C)(C)C(F)(F)F)C(C)(C)C(F)(F)F [Example 191, Methyl ((5S,8S,9S,14S)-11-(4-(1-(2,2-difluoroethyl)-1H-pyrazol-3-yl)-2,6-difluorobenzyl)-16,16,16-trifluoro-9-hydroxy-15,15-dimethyl-8-(4-(2-((1R,4R)-5-(oxetan-3-yl)-2,5-diazabicyclo[2.2.1]heptan-2-yl)pyrimidin-5-yl)benzyl)-3,6,13-trioxo-5-(1,1,1-trifluoro-2-methylpropan-2-yl)-2-oxa-4,7,11,12-tetraazahexadecan-14-yl)carbamate] showed an EC50 of 17.4 nM.
COC(=O)N[C@H](C(=O)N[C@@H](Cc1ccc(-c2ccc(N3C[C@H]4C[C@@H]3CN4C3COC3)nc2)cc1)[C@@H](O)CN(Cc1c(F)cc(-c2ccn(C3CC3)n2)cc1F)NC(=O)[C@@H](NC(=O)OC)C(C)(C)C(F)(F)F)C(C)(C)C(F)(F)F [Example 194, Methyl ((5S,8S,9S,14S)-11-(4-(1-cyclopropyl-1H-pyrazol-3-yl)-2,6-difluorobenzyl)-16,16,16-trifluoro-9-hydroxy-15,15-dimethyl-8-(4-(6-((1R,4R)-5-(oxetan-3-yl)-2,5-diazabicyclo[2.2.1]heptan-2-yl)pyridin-3-yl)benzyl)-3,6,13-trioxo-5-(1,1,1-trifluoro-2-methylpropan-2-yl)-2-oxa-4,7,11,12-tetraazahexadecan-14-yl)carbamate] showed an EC50 of 7.2 nM.
Molecule COC(=O)N[C@H](C(=O)N[C@@H](Cc1ccc(-c2ccc(N3C[C@H]4C[C@@H]3CN4C3COC3)nc2)cc1)[C@@H](O)CN(Cc1c(F)cc(-c2ccn(C(F)F)n2)cc1F)NC(=O)[C@@H](NC(=O)OC)C(C)(C)C(F)(F)F)C(C)(C)C(F)(F)F [Example 196, Methyl ((5S,8S,9S,14S)-11-(4-(1-(difluoromethyl)-1H-pyrazol-3-yl)-2,6-difluorobenzyl)-16,16,16-trifluoro-9-hydroxy-15,15-dimethyl-8-(4-(6-((1R,4R)-5-(oxetan-3-yl)-2,5-diazabicyclo[2.2.1]heptan-2-yl)pyridin-3-yl)benzyl)-3,6,13-trioxo-5-(1,1,1-trifluoro-2-methylpropan-2-yl)-2-oxa-4,7,11,12-tetraazahexadecan-14-yl)carbamate] has an EC50 of 10.5 nM.

Same assay, conditions: Human immunodeficiency virus 1, MT4, 120 h; HIV-1 (IIIB), MT-4 cells, 5 days, Cell Titer Glo; read-out: EC50
Work on COC(=O)N[C@H](C(=O)N[C@@H](Cc1ccc(C#Cc2ccc(N3CC4CCC(C3)N4C3COC3)nc2)cc1)[C@@H](O)CN(Cc1c(F)cc(-c2ccn(C(F)F)n2)cc1F)NC(=O)[C@@H](NC(=O)OC1CC1)C(C)(C)C)C(C)(C)C(F)(F)F [Example 187, cyclopropyl ((5S,8S,9S,14S)-11-(4-(1-(difluoromethyl)-1H-pyrazol-3-yl)-2,6-difluorobenzyl)-9-hydroxy-15,15-dimethyl-8-(4-((6-(8-(oxetan-3-yl)-3,8-diazabicyclo[3.2.1]octan-3-yl)pyridin-3-yl)ethynyl)benzyl)-3,6,13-trioxo-5-(1,1,1-trifluoro-2-methylpropan-2-yl)-2-oxa-4,7,11,12-tetraazahexadecan-14-yl)carbamate] yielded an EC50 of 4.7 nM.
In the case of COC(=O)N[C@H](C(=O)N[C@@H](Cc1ccc(-c2ccc(N3C[C@H]4C[C@@H]3CN4C3COC3)nc2)cc1)[C@@H](O)CN(Cc1c(F)cc(-c2ccn(CC(F)F)n2)cc1F)NC(=O)[C@@H](NC(=O)OC)C(C)(C)C(F)(F)F)C(C)(C)C(F)(F)F [Example 188, methyl ((5S,8S,9S,14S)-11-(4-(1-(2,2-difluoroethyl)-1H-pyrazol-3-yl)-2,6-difluorobenzyl)-16,16,16-trifluoro-9-hydroxy-15,15-dimethyl-8-(4-(6-((1R,4R)-5-(oxetan-3-yl)-2,5-diazabicyclo[2.2.1]heptan-2-yl)pyridin-3-yl)benzyl)-3,6,13-trioxo-5-(1,1,1-trifluoro-2-methylpropan-2-yl)-2-oxa-4,7,11,12-tetraazahexadecan-14-yl)carbamate], the EC50 is reported as 9 nM.
Work on COC(=O)N[C@H](C(=O)N[C@@H](Cc1ccc(-c2cnc(N3CC4CCC(C3)N4C3COC3)nc2)cc1)[C@@H](O)CN(Cc1c(F)cc(-c2cn(C(F)F)cn2)cc1F)NC(=O)[C@@H](NC(=O)OC)C(C)(C)C(F)(F)F)C(C)(C)C(F)(F)F [Example 189, Methyl ((5S,8S,9S,14S)-11-(4-(1-(difluoromethyl)-1H-imidazol-4-yl)-2,6-difluorobenzyl)-16,16,16-trifluoro-9-hydroxy-15,15-dimethyl-8-(4-(2-(8-(oxetan-3-yl)-3,8-diazabicyclo[3.2.1]octan-3-yl)pyrimidin-5-yl)benzyl)-3,6,13-trioxo-5-(1,1,1-trifluoro-2-methylpropan-2-yl)-2-oxa-4,7,11,12-tetraazahexadecan-14-yl)carbamate] yielded an EC50 of 5.47 nM.
Work on COC(=O)N[C@H](C(=O)NN(Cc1c(F)cc(-c2cn(C(F)F)cn2)cc1F)C[C@H](O)[C@H](Cc1ccc(-c2cnc(N3CC4CCC(C3)N4C3COC3)nc2)cc1)NC(=O)[C@@H](NC(=O)OC)C(C)(C)C(F)(F)F)C(C)(C)C [Example 190, methyl ((5S,8S,9S,14S)-11-(4-(1-(difluoromethyl)-1H-imidazol-4-yl)-2,6-difluorobenzyl)-9-hydroxy-15,15-dimethyl-8-(4-(2-(8-(oxetan-3-yl)-3,8-diazabicyclo[3.2.1]octan-3-yl)pyrimidin-5-yl)benzyl)-3,6,13-trioxo-5-(1,1,1-trifluoro-2-methylpropan-2-yl)-2-oxa-4,7,11,12-tetraazahexadecan-14-yl)carbamate] yielded an EC50 of 7.06 nM.
In the case of COC(=O)N[C@H](C(=O)NN(Cc1c(F)cc(-c2ccn(CC(F)F)n2)cc1F)C[C@H](O)[C@H](Cc1ccc(-c2cnc(N3CC4CCC(C3)N4C3COC3)nc2)cc1)NC(=O)[C@@H](NC(=O)OC)C(C)(C)C(F)(F)F)C(C)(C)C [Example 193, Methyl ((5S,8S,9S,14S)-11-(4-(1-(2,2-difluoroethyl)-1H-pyrazol-3-yl)-2,6-difluorobenzyl)-9-hydroxy-15,15-dimethyl-8-(4-(2-(8-(oxetan-3-yl)-3,8-diazabicyclo[3.2.1]octan-3-yl)pyrimidin-5-yl)benzyl)-3,6,13-trioxo-5-(1,1,1-trifluoro-2-methylpropan-2-yl)-2-oxa-4,7,11,12-tetraazahexadecan-14-yl)carbamate], the EC50 is reported as 2.78 nM.
Work on COC(=O)N[C@H](C(=O)N[C@@H](Cc1ccc(-c2ccc(N3CC4CC(C3)N4C3COC3)nc2)cc1)[C@@H](O)CN(Cc1c(F)cc(-c2ccn(C(F)F)n2)cc1F)NC(=O)[C@@H](NC(=O)OC)C(C)(C)C(F)(F)F)C(C)(C)C(F)(F)F [Example 202, Methyl ((5S,8S,9S,14S)-11-(4-(1-(difluoromethyl)-1H-pyrazol-3-yl)-2,6-difluorobenzyl)-16,16,16-trifluoro-9-hydroxy-15,15-dimethyl-8-(4-(6-(6-(oxetan-3-yl)-3,6-diazabicyclo[3.1.1]heptan-3-yl)pyridin-3-yl)benzyl)-3,6,13-trioxo-5-(1,1,1-trifluoro-2-methylpropan-2-yl)-2-oxa-4,7,11,12-tetraazahexadecan-14-yl)carbamate] yielded an EC50 of 9.67 nM.
Work on COC(=O)N[C@H](C(=O)N[C@@H](Cc1ccc(-c2ccc(N3CC4CCC(C3)N4C3COC3)nc2)cc1)[C@@H](O)CN(Cc1c(F)cc(-c2nnc(C3CC3)o2)cc1F)NC(=O)[C@@H](NC(=O)OC)C(C)(C)C(F)(F)F)C(C)(C)C(F)(F)F [Example 205, Methyl ((5S,8S,9S,14S)-11-(4-(5-cyclopropyl-1,3,4-oxadiazol-2-yl)-2,6-difluorobenzyl)-16,16,16-trifluoro-9-hydroxy-15,15-dimethyl-8-(4-(6-(8-(oxetan-3-yl)-3,8-diazabicyclo[3.2.1]octan-3-yl)pyridin-3-yl)benzyl)-3,6,13-trioxo-5-(1,1,1-trifluoro-2-methylpropan-2-yl)-2-oxa-4,7,11,12-tetraazahexadecan-14-yl)carbamate] yielded an EC50 of 5.25 nM.
Work on COC(=O)N[C@H](C(=O)N[C@@H](Cc1ccc(-c2cnn(C(F)F)c2)cc1)[C@@H](O)CN(Cc1c(F)cc(-c2cnn(C(F)F)c2)cc1F)NC(=O)[C@@H](NC(=O)OC)C(C)(C)C(F)(F)F)C(C)(C)C(F)(F)F [Example 211, Methyl ((5S,8S,9S,14S)-11-(4-(1-(difluoromethyl)-1H-pyrazol-4-yl)-2,6-difluorobenzyl)-8-(4-(1-(difluoromethyl)-1H-pyrazol-4-yl)benzyl)-16,16,16-trifluoro-9-hydroxy-15,15-dimethyl-3,6,13-trioxo-5-(1,1,1-trifluoro-2-methylpropan-2-yl)-2-oxa-4,7,11,12-tetraazahexadecan-14-yl)carbamate] yielded an EC50 of 5.75 nM.
CC(C)([C@H](NC(=O)C1CC1)C(=O)N[C@@H](Cc1ccc(-c2cnn(C(F)F)c2)cc1)[C@@H](O)CN(Cc1c(F)cc(-c2ccn(C(F)F)n2)cc1F)NC(=O)[C@@H](NC(=O)C1CC1)C(C)(C)C(F)(F)F)C(F)(F)F [Example 213, N—((S)-1-(2-((2S,3S)-3-((S)-2-(cyclopropanecarboxamido)-4,4,4-trifluoro-3,3-dimethylbutanamido)-4-(4-(1-(difluoromethyl)-1H-pyrazol-4-yl)phenyl)-2-hydroxybutyl)-2-(4-(1-(difluoromethyl)-1H-pyrazol-3-yl)-2,6-difluorobenzyl)hydrazinyl)-4,4,4-trifluoro-3,3-dimethyl-1-oxobutan-2-yl)cyclopropanecarboxamide] gave an EC50 of 4.86 nM.
In the case of CCC(=O)N[C@H](C(=O)N[C@@H](Cc1ccc(-c2cnn(C(F)F)c2)cc1)[C@@H](O)CN(Cc1c(F)cc(-c2cnn(C(F)F)c2)cc1F)NC(=O)[C@@H](NC(=O)CC)C(C)(C)C(F)(F)F)C(C)(C)C(F)(F)F [Example 215, (S)—N-((2S,3S)-4-(1-(4-(1-(difluoromethyl)-1H-pyrazol-4-yl)-2,6-difluorobenzyl)-2-((S)-4,4,4-trifluoro-3,3-dimethyl-2-propionamidobutanoyl)hydrazinyl)-1-(4-(1-(difluoromethyl)-1H-pyrazol-4-yl)phenyl)-3-hydroxybutan-2-yl)-4,4,4-trifluoro-3,3-dimethyl-2-propionamidobutanamide], the EC50 is reported as 18.2 nM.
